System: patients with PBC and cholestatic pruritus
Assay: GLIMMER Phase 2b study (NCT02966834): itch efficacy and PBC-40 quality of life
Type: in vivo, human
Details: for mean increase in itch responder days: difference from placebo, 12 weeks' treatment
Excerpt: Measurement of Itch (pruritus)—10 Point Numerical Rating Scale (NRS) • Itch Score: itch scores recorded by study participants twice daily; a 0-10 Numerical Rating Scale (NRS) is used to assess itch with a response option of 0 representing no itching and 10 the worst imaginable itching • Worst Daily Itch Score: the worst of two itch scores recorded by a patient daily is considered the score for that day (i.e. the most severe (highest) NRS recorded on a given day) • Mean Worst Daily Itch Score (Weekly Itch Score [WIS]): the average of the Worst Daily Itch Scores in one week (7 days) • Monthly Itch Score (MIS): the worst Mean Worst Daily Itch Score for that month (i.e., worst week score of the 4 weeks) • Itch Response: for example, ≥2-point improvement in mean Worst Daily Itch Score from Baseline • Itch Responder Days: days when the Itch Response definition is met (i.e. days with an Itch Response) • Itch Severity: measured using 0-10 NRS; moderate to severe is ≥4 NRS • Baseline (itch score at the end of the placebo period before treatment,) is the average of the itch scores in the 7 days prior to randomisation (in Example 2, prior to randomisation at Week 4) • Change from Baseline was calculated as the post-Baseline value minus the Baseline value.
GLIMMER trial: Phase 2b study (NCT02966834; GSK study 201000). A randomized, double-blind, placebo-controlled study of linerixibat, an inhibitor of the ileal bile acid transporter, in the treatment of cholestatic pruritus in primary biliary cholangitis, for patients with PBC and pruritus.
The twice daily patient-reported 0-10 Numerical Rating Scale (NRS) worst itch assessment was employed, with the worst value from each day used to calculate the mean worst daily itch, which was then used to assess change in pruritus. This measure has independent content validity in PBC; similar measures are psychometrically valid and have been used to determine changes in itch intensity in PBC.
Patients with PBC with pruritus (≥4 on 0-10 numeric rating scale [NRS]) were enrolled; double-blind treatment was preceded and followed by 4 weeks' single-blind placebo.
At Week 4, patients with NRS ≥3 were randomized,(4:1) to double-blind linerixibat or placebo for 12 weeks (to Week 16), followed by single-blind placebo (to Week 20).
Primary endpoint: mean change from baseline in mean Worst Daily Itch Score at Week 16. Participants were required to score the severity of their itching using the 0-10 NRS, from which the Worst Daily Itch Score is obtained, and the Mean Worst Daily Itch score was calculated as the average of the worst daily itch scores provided in the 7 days prior to the Week 16 visit. Baseline is the average of the scores in the 7 days prior to the Week 4, and the Change from Baseline was calculated. Analysis was done using Analysis of covariance (ANCOVA) including treatment group and centered Mean Worst Daily Itch score at Baseline.
Secondary and exploratory endpoints: itch efficacy, quality of life (PBC-40) and pharmacodynamic biomarkers, and safety and tolerability.
Ad hoc endpoint: change from baseline itch compared with Monthly Itch Score over the main study period.
Due to the potential fluctuation of itch over time, an additional post-hoc analysis was conducted on the primary endpoint according to the FDA preferred approach to evaluate the effect over the entire 12 weeks treatment duration using Monthly Itch Score. A mixed model repeated measures (or mixed-effect repeated measure model) (MMRM) analysis estimated the effect of linerixibat comparing to placebo over the entire 12 weeks treatment duration.

For `CCCC[C@]1(CC)CS(=O)(=O)c2cc(CNC(CC(=O)O)CC(=O)O)c(OC)cc2[C@@H](c2ccccc2)N1` [linerixibat], the “responder days vs placebo” value (40 mg BID and 90 mg BID) was “Significantly more”, the “Mean Worst Daily Itch Score of patients with moderate to severe itch at baseline, versus placebo” value (40 mg BID, 12 weeks treatment) was “Significant difference” and the “PBC-40 emotional domain, LS Mean difference vs placebo” value (40 mg BID, 95% CI: −1.9, 0.3) was −0.8. The “PBC-40 social domain, LS Mean difference vs placebo” value (40 mg BID, 95% CI: −4.8, 0.1) was −2.4, the “mean increase in itch responder days” value (40 mg BID) was 20% and the “LS Mean Change from Baseline vs Placebo in Monthly Itch Score over 12 weeks treatment (MMRM, post-hoc)” value (shortened to “LS Mean Change from Baseline vs Placebo”) (40 mg BID, p=0.011) was -1.16. The “Monthly Itch Score, improvement from baseline over 12 weeks treatment” value (40 mg and 90 mg BID, 180 mg QD) was “Significant improvement”, the “mean increase in itch responder days” value (90 mg BID) was 27% and the “LS Mean Change from Baseline vs Placebo” value (90 mg BID, p=0.037) was −0.95. For the same compound, the “LS Mean Change from Baseline vs Placebo” value (180 mg QD, p=0.042) was −0.90, the “pre-specified primary endpoint: dose response across dose ranges” value (ITT and per protocol populations) was “could not be established” and the “mean Worst Daily Itch Score” value (all linerixibat doses) was “rapid improvement”. For the same compound, the “PBC-40 itch domain, change from baseline after 12 weeks” value (all treatment groups including placebo, p≤0.05) was “significant improvement”.

From patent US20230414634A1, “METHODS FOR TREATING CHOLESTATIC PRURITUS” (GlaxoSmithKline Intellectual Property (No.2) Limited, priority 2020, published 2023)
